“And” between values parts separate entries of the source, which are not always exact repeats. Identical values can stand only once.
Assays:
[1] = system: Th9 cells; assay: Screening of 65 natural compounds for IL-9 production by Th9 cells (Figure 1B); assay type: cell-based, mouse; conditions: 10 μM; result in words
Excerpt: To identify natural small molecules that enhance the antitumor potential of Th9 cells, we constructed a chemically and structurally defined small-molecule library derived from endophytic fungi isolated from G. lucidum and Periplaneta americana (Supplemental Table 1; supplemental material available online with this article; https://doi.org/10.1172/JCI196907DS1). This library comprised 65 structurally diverse metabolites classified into 11 distinct scaffold families, with each compound structurally elucidated via NMR spectroscopy and verified against previously reported spectral data. To functionally evaluate the immunomodulatory potential of these compounds, we systematically screened the library for their ability to promote Th9 cell differentiation, assessed by intracellular IL-9 expression using flow cytometry (Figure 1, A and B).
Naive CD4^+ T cells were isolated from the spleens of C57BL/6J or CD45.1^+ OT-II mice using the MojoSort Mouse CD4 Naive T Cell Isolation Kit (BioLegend, catalog 480040), following the manufacturer’s protocol. Purified cells were cultured in RPMI-1640 medium supplemented with 10% FBS, 1% penicillin-streptomycin, and 0.1% β-mercaptoethanol (Gibco, catalog 21985023). […]

[2] = system: Th1 cells; assay: Th1 polarization, IFN-γ by flow cytometry (Figure 1F); assay type: cell-based, mouse
Protocol: Naive CD4^+ T cells were isolated from the spleens of C57BL/6J or CD45.1^+ OT-II mice using the MojoSort Mouse CD4 Naive T Cell Isolation Kit (BioLegend, catalog 480040), following the manufacturer’s protocol. Purified cells were cultured in RPMI-1640 medium supplemented with 10% FBS, 1% penicillin-streptomycin, and 0.1% β-mercaptoethanol (Gibco, catalog 21985023).
T cell polarization was initiated under plate-bound anti-CD3 (2 μg/mL, clone 17A2, BioXCell, catalog BE0002) and soluble anti-CD28 (1 μg/mL, clone 37.51, BioXCell, catalog BE0015-1) stimulation, with the addition of cytokines and neutralizing antibodies specific to each subset. For Th9 cells, these included IL-4 (10 ng/mL, Peprotech, catalog 400-04), TGF-β (1 ng/mL, EPOTO Biotech, catalog HF-2021), anti–IL-12 (5 μg/mL, clone C17.8, BioXCell, catalog BE0051), and anti–IFN-γ (10 μg/mL, clone XMG1.2, BioXCell, catalog BE0055); for Th1 cells, these included IL-12 (10 ng/mL, GenScript, catalog Z03211-50) and anti–IL-4 (5 μg/mL, clone 11B11, BioXCell, catalog BE0045); for Th2 cells, these included IL-4 (50 ng/mL), anti–IFN-γ (20 μg /mL), anti–IL-12 (5 μg/mL), Th17 cells: IL-6 (20 ng/mL, EPOTO Biotech, catalog MF-1006), TGF-β (1 ng/mL), IL-1β (10 ng/mL, Peprotech, catalog AF-211-11B), anti–IFN-γ (10 μg/mL), anti–IL-12 (5 μg/mL), and anti–IL-4 (5 μg/mL); and for Tregs, these included TGF-β (3 ng/mL). […]

## anteiso-C15 Leu7 surfactin [EpA]
[1]
  Th9 polarization in screen: most potent enhancer of Th9 polarization
[2]; EpA 10 μM, individual replicates, n = 4
  IFN-γ expression under Th1 polarization: 80 and 84.2 and 74.8 and 80.3
[2]; result in words
  effect on Th1 polarization: did not affect

Reference: PMC12867150, “A fungi-derived cyclic peptide enhances Th9-mediated antitumor immunity by targeting ZAP70 and SREBP1” (The Journal of Clinical Investigation, 2025)
